We go through one compound from publication PMC12281487, “Discovery and Validation of a Novel Class of Necroptosis Inhibitors Targeting RIPK1” (ACS Chemical Biology, 2025).

Structures are written as SMILES.

One assay concerns the target T1, recombinant hRIPK1 (Homo sapiens, UniProt Q13546).
T1 construct: Th (between GST and residue 1); purchased BPS Bioscience 40371
T1 sequence (Q13546 1-327): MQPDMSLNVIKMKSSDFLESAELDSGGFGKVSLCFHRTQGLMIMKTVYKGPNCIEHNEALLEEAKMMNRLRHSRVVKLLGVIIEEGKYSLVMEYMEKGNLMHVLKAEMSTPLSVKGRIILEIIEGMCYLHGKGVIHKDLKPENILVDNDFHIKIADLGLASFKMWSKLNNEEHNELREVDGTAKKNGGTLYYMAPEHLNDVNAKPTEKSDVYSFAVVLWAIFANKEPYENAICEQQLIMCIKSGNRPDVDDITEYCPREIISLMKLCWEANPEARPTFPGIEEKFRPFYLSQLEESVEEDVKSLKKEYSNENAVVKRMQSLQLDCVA
Briefly: ADP-Glo kinase assay. Type of assay: biochemical. Particulars: for IC50: GST-RIPK1 75 nM. The method, then:
Compound potency and mode of inhibition against RIPK1 kinase activity were determined by using an ADP-Glo kinase assay (Promega). The assay was carried out in accordance with the manufacturer’s protocol. The initial kinase reaction was performed by incubating recombinant hRIPK1 (GST-Th-1-327 from BPS Bioscience ref 40371, 75 nM) with the inhibitor (0–100 μM) and ATP (0–500 μM) for 4 h at 24 °C in kinase assay buffer (50 mM HEPES pH 7.5, 50 mM NaCl, 30 mM MgCl2, 0.5 mg mL^–1 BSA, 0.02% CHAPS, and 4 mM DTT). Following this reaction, ADP-Glo Reagent and Kinase Detection Reagent were successively added and incubated for 1 and 0.5 h at 24 °C, respectively. A […] (kinase assay reaction/ADP-Glo Reagent/Kinase Detection Reagent) volume ratio of the kit’s components was used. Bioluminescence was measured on a Varioskan LUX multimode microplate reader with SkanIt Software. Experiments were conducted in triplicate. Concentration response curves and IC50 values were generated from nonlinear regression fits performed on GraphPad Prism 9.1.1. Additionally, the produced ADP concentration values were divided by the kinase reaction incubation time to calculate reaction velocity values and generate velocity curves. Velocity curves were fitted in Michaelis–Menten model on GraphPad Prism 9.1.1 to calculate the maximum velocity (v max) and Michaelis–Menten constant (K M) parameters.
(In ADP-Glo the light output rises with the ADP produced.)

For assay [1], the system named is RIPK1 Ser166 phosphorylation. Kind of assay: Western blot of RIPK1 Ser166 phosphorylation in I2.1 cells. Type of assay: cell-based, human. To be noted: prior treatment with 10 μM compound. The method, then:
All compound treatments were performed with a preprepared 1000× stock of the desired concentration in DMSO and added directly to the relevant plate, with a final concentration of 0.1% DMSO on the cells. TNF (final concentration 575 pM) was added to induce necroptosis, the cells incubated for 4 h and harvested.
Cells were transferred to a microcentrifuge tube and centrifuged at 200g for 5 min, and media were removed. Cells were washed with PBS and lysed with 100 μL of lysis buffer (radioimmunoprecipitation assay lysis buffer, Sigma-Aldrich, R0278) supplemented with 1× phosphatase inhibitor cocktail 2 (Sigma, P5726) and 1× complete EDTA-free protease inhibitor cocktail (Sigma, […])) on ice for 30 min. The lysate was collected by centrifugation at 17,000g, 4 °C for 5 min, and the lysate was transferred to a new microcentrifuge tube. Protein concentration was determined using the DC Protein Assay (Bio-Rad) in a 96-well plate as per the manufacturer’s instructions and subsequently adjusted to 1 mg mL^–1 using lysis buffer. Samples were prepared by adding 4 μL of 4× loading buffer (Biorad, 161-0747) containing β-mercaptoethanol to 12 μL of protein sample and boiling at 95 °C for 10 min. 14 μL of each sample was loaded onto a 4–15% Mini-PROTEAN TGX precast gel (Biorad, 456-1086) and run in 1× running buffer (0.25 M Tris, 0.2 M glycine, 0.1% (w/v) SDS) for 1.15 h at 130 V. Either 2 μL of precision plus protein all blue prestained protein standards (Bio-Rad, 1610373) or precision plus protein dual color standards (Bio-Rad, 1610374) was used in at least one well.
Proteins were transferred onto a nitrocellulose membrane (GE Healthcare) using the Trans-Blot Turbo Transfer System (Biorad, 1704150) at 2.5 A and 25 V for 7 min. The membrane was stained with Ponceau S to confirm protein transfer prior to blocking with 5% (w/v) nonfat dried skimmed milk in TBS-T (1× Tris-buffered saline, 0.1% (v/v) Tween-20) at rt for 1 h. Staining with the desired primary antibody in 5% (w/v) nonfat dried skimmed milk in TBS-T was performed overnight at 4 °C. The blot was washed with TBS-T at rt (3 × 5 min) and stained with secondary antibody in 5% (w/v) nonfat dried skimmed milk in TBS-T for 1 h at rt. The blot was washed with TBS-T at rt (3 × 5 min), visualized with Immobilon Crescendo Western HRP substrate, and imaged using ImageQuant LAS-4000 Imaging System (Fujifilm), and the contrast normalized in Fiji.
(A western blot detects proteins with antibodies after separation by electrophoresis.)

A further assay concerns C57BL/6J mice. Kind of assay: TNF-induced SIRS murine model. Particulars: 5 mg/kg i.v. 15 min before TNF 0.5 mg/kg i.v., 3 mice per group.
In assay [2] the test system is I2.1 FADD–/– human Jurkat cells. Briefly: IncuCyte necroptosis assay in I2.1 cells. Particulars: Homo sapiens, Jurkat, read-out: EC50 (95% CI), necroptosis inhibition.
Procedure: A cell-based assay was established to monitor necroptosis in I2.1 cells using the IncuCyte S3 live cell microscopy platform (Figure S1a). Necroptosis was induced by treatment with TNF, and Sytox Green was used to monitor membrane permeabilization over time as an indicator of progressive necroptotic cell death (Figure S1b–d), allowing determination of the EC50 of candidate necroptosis inhibitors.
I2.1 cells were seeded in a sterile 96-well plate (Greiner) at 20,000 cells per well and incubated at 37 °C overnight. The cells were treated with a final concentration of 600 pM TNF, 1 μM Sytox Green, and compounds in a dose-dependent manner. Wells containing TNF and Sytox Green served as positive control. Wells containing DMSO and Sytox Green served as a negative control. The plate was placed into an IncuCyte S3 Live Cell Analysis System (Sartorius) and readings for phase and green fluorescence were taken every hour for 24 h, with 4 images per well. The images were analyzed with IncuCyte 2021C software and the Green Integrated Intensity Per Image/Phase Area Per Image (GCU × μm^2/image/μm^2/image or GP) was exported. The background at t = 0 h was subtracted, and the linear slope (t = 3–7 h) was calculated by plotting GP against time. The percent inhibition of necroptosis was determined by normalizing to the positive and negative controls and graphing against the [compound]. EC50 values were determined using Prism 10 for each replicate, which were then used to calculate the geometric mean EC50 and associated 95% CIs.
I2.1 cells in a 96-well plate were treated with TNF to induce necroptosis, a dilution series of the candidate necroptosis inhibitor and Sytox Green to monitor cell death. Plates were placed in the IncuCyte® and imaged every hour for 24 h. Cell death was measured over time and used to determine the proportion of necroptotic cells compared to those without necroptosis induction or not treated with an inhibitor. The linear portion of the graph was used to determine an initial rate for calculation of the EC50. TNF with Sytox Green and Sytox Green alone were used as positive and negative controls, respectively. […] EC50 values are expressed as the geometric mean with a 95% confidence interval (CI) of at least three biological replicates.

Procedure for C57BL/6J mice: Male C57BL/6J mice of 18–25 g were used at the age of 6–8 weeks. Three animals were included in each experimental group. All animal experiments were carried out with the permission of the local animal ethical committee in accordance with the EU Directive (2010/63/EU), Portuguese laws (DL113/2013, 2880/2015, 260/2016), and all relevant legislations. Animals received humane care in a temperature-controlled environment with a 12 h light–dark cycle and ad libitum access to pelleted chow and water, complying with the Institute’s guidelines, and as outlined in the “Guide for the Care and Use of Laboratory Animals” prepared by the National Academy of Sciences and published by the National Institutes of Health (NIH publication 86-23 revised 1985). […] TNF was diluted in sterile PBS. […] All injections were administered intravenously (i.v.).

Consider `CN1C(=O)C(Cc2c[nH]c3ccccc23)NC1=S` (stereo not drawn) [Nec-1, Necrostatin 1], for which the IC50 (in general, the concentration that gives 50% inhibition) worked out at 2.7 µM at recombinant hRIPK1 (ATP concentration 10 μM) and 8.1 µM on recombinant hRIPK1 (ATP concentration 500 μM). Besides, the “mode of inhibition with respect to ATP” value on recombinant hRIPK1 (ATP concentrations 10–500 μM) was “competition with ATP”. The “phosphorylation of RIPK1 Ser166 after TNF” value in assay [1] is given as “blocked”. For the same compound, in the assay on C57BL/6J mice, the “protection from TNF-induced mortality (survival)” value is reported as “partially protected”. Also, in assay [2], the EC50 (commonly the concentration at which the effect is half-maximal) was 0.75 µM.
